Like-named read-outs stand apart in the source and are kept apart here.

Series [1] concerns ACHN renal cell carcinoma cell line. Put plainly: MTT cell viability assay, ACHN. The format is cell-based. Conditions: Homo sapiens, read-out: EC50 on cell viability, ACHN (Kidney). On the procedure: (§1) Cell-based assays were performed using the described cell lines, grown in the appropriate Growth Mediums containing 10% fetal bovine serum and 1% penicillin-streptomycin. Cancer cells were plated at 15,000 cells/well in 96-well plates and allowed to attach overnight. […] Cell viability was determined after 72 hours incubation periods. To determine anti-proliferative effects of inhibitors, cellular proliferation was determined using the colorimetric MTT cell viability assay kit, as described by the manufacture (ATCC).
A general note: Tetrazolium dyes change colour on reduction, which living cells bring about.

The test system of another series is Huh-7 hepatoma cell line. Description: MTT cell viability assay, Huh-7. The format is cell-based. Conditions: Homo sapiens, read-out: EC50 on cell viability, Huh-7 (Liver). As to the method:
as §1

The next series has as its system HepG2 hepatoma cell line. Put plainly: MTT cell viability assay, HepG2. To be noted: for EC50: Homo sapiens, read-out: EC50 on cell viability, HepG2 (Liver). The format is cell-based. As to the method:
as §1

For the next series, the target named is b-Raf (V600E) (Homo sapiens (Human), UniProt P15056, V600E). Put plainly: In vitro kinase inhibition assay (ADP-Glo), b-Raf (V600E). The format is biochemical. On the procedure:
(§2) All measurements included background and control (vehicle only) luminescence readings.
(§3) The kinases Raf-1 and b-Raf (V600E), and their corresponding substrate, MEK1, and Full length recombinant CRAF kinase and its respective substrate, recombinant MEK1, were purchased from US Biological (Swampscott, Mass.). All assays were performed under identical conditions for the Raf isozymes: 10 nM Enzyme, 1 μM MEK1, 10 μM ATP, at 22° C. for 2 hours. […] IC50 values were obtained by determining the change in the ADP production (luminescence signal) at various inhibitor concentrations as compared to the control assay. Individual data sets were performed in duplicate and each IC50 was determined by the average and standard deviation of three separate experiments.
(In ADP-Glo the light output rises with the ADP produced.)

The target in another series is human sEH (Homo sapiens (Human), UniProt P34913). Put plainly: Inhibitory activity against human sEH. The format is biochemical.
Series [2] deals with SKBR3 breast cancer cell line. Put plainly: MTT cell viability assay, SKBR3. To be noted: Homo sapiens, read-out: EC50 on cell viability, SKBR3 (Breast). Type of series: cell-based. As to the method: (§4) Cell-based assays were performed using the described cell lines, grown in the appropriate Growth Mediums containing 10% fetal bovine serum and 1% penicillin-streptomycin. Cancer cells were plated at 15,000 cells/well in 96-well plates and allowed to attach overnight. Inhibitors were dissolved in DMSO and then diluted to concentrations ranging from 0.1-25 μM with a final DMSO concentration of 0.1%. Cell viability was determined after 72 hours incubation periods. To determine anti-proliferative effects of inhibitors, cellular proliferation was determined using the colorimetric MTT cell viability assay kit, as described by the manufacture (ATCC).

Series [3] relates to PC-3 prostate cancer cell line. Put plainly: MTT cell viability assay, PC-3. Conditions: read-out: EC50 on cell viability, PC-3 (Prostate). Type of series: cell-based. As to the method: as §4
Another series addresses Raf-1 (Homo sapiens (Human), UniProt P04049). Description: In vitro kinase inhibition assay (ADP-Glo), Raf-1. Type of series: biochemical. As to the method:
as §2, §3
Full length recombinant CRAF kinase and its respective substrate, recombinant MEK1, were purchased from US Biological (Swampscott, Mass.). All assays were performed at 10 nM CRAF, 1 μM MEK1, 10 μM ATP, at 22° C. for 2 hours. […] IC50 values were obtained by determining the change in the ADP production (luminescent signal) at various inhibitor concentrations as compared to the control assay. Individual data sets were performed in duplicate and each IC50 was determined by the mean and standard deviation of three separate experiments.

Series [4] has as its system T47D breast cancer cell line. Put plainly: MTT cell viability assay, T47D. The format is cell-based. Conditions: Homo sapiens, 72 hours incubation. As to the method:
as §4

Series [5] can be described thus: Pharmacokinetics after cassette oral administration to mice. To be noted: male, Swiss Webster, mouse, in vivo, 1 mg/kg. As to the method: Male Swiss Webster mice (10-week old, 30-35 g) were used for PK studies. […] Each blood sample was immediately transferred to a tube containing 50 μL of water containing 0.1% EDTA. After being mixed strongly on a Vortex for 1 min, all samples were stored at −80° C. until analysis. The extraction of sEHIs from blood was performed by a slight modification of a previous method. […] Torrance, Calif.) held at 50° C. […] The injection volume was 10 μL and the samples were kept at 4° C. in the auto sampler. Analytes were detected by negative mode electrospray ionizations tandem quadrupole trap mass spectrometry in multiple reaction-monitoring mode (MRM) on a Trap 4000 Mass Spectrometer (ABI, Milford, Mass.). The parameters of MS condition were the same as presented previously.

[6] abbreviates: SK-BR-3, MTT, 72 hours incubation.
The mark [7] stands for this setting: 10 nM enzyme, 1 μM MEK1, 10 μM ATP, 22° C., 2 hours, read-out: Raf-1 IC50.
Where [8] appears, read: Huh-7, MTT, 72 hours incubation.
The mark [9] stands for this setting: HepG2, MTT, 72 hours incubation.

Chain of b-Raf (V600E) (P15056 whole entry V600E): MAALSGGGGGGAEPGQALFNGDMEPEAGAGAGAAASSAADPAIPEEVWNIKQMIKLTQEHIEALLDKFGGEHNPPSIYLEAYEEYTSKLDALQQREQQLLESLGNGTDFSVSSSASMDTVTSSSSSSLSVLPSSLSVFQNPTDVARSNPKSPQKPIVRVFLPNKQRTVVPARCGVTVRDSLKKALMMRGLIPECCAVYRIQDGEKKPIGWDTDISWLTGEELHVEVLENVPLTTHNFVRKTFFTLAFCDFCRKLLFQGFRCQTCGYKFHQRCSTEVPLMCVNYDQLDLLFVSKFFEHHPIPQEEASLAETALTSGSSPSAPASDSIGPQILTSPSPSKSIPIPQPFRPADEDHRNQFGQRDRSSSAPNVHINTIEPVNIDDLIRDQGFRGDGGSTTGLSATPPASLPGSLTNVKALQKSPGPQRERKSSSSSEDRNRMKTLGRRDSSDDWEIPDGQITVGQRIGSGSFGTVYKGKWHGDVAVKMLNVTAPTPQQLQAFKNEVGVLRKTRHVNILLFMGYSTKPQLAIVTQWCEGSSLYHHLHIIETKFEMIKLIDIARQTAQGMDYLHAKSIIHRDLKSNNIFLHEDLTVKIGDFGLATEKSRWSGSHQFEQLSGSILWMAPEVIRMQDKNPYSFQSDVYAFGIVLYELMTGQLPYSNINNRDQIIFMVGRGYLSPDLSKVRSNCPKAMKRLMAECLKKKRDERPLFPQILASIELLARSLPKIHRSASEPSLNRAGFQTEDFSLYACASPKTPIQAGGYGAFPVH
Chain of human sEH (P34913 whole entry): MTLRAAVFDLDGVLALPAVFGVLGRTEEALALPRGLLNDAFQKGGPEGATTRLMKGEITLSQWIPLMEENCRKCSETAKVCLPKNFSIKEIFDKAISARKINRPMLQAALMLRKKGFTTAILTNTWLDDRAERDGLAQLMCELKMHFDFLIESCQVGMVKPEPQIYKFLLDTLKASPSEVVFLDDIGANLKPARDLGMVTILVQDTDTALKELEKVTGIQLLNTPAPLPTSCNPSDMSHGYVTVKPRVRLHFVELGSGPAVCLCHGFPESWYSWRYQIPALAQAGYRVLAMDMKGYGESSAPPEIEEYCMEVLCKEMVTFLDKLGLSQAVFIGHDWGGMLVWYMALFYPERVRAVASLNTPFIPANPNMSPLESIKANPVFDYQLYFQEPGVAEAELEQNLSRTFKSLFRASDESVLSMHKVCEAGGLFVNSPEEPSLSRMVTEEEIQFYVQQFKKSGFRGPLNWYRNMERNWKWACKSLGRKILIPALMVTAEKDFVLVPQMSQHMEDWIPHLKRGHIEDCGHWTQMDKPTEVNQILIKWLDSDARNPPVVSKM
Chain of Raf-1 (P04049 whole entry): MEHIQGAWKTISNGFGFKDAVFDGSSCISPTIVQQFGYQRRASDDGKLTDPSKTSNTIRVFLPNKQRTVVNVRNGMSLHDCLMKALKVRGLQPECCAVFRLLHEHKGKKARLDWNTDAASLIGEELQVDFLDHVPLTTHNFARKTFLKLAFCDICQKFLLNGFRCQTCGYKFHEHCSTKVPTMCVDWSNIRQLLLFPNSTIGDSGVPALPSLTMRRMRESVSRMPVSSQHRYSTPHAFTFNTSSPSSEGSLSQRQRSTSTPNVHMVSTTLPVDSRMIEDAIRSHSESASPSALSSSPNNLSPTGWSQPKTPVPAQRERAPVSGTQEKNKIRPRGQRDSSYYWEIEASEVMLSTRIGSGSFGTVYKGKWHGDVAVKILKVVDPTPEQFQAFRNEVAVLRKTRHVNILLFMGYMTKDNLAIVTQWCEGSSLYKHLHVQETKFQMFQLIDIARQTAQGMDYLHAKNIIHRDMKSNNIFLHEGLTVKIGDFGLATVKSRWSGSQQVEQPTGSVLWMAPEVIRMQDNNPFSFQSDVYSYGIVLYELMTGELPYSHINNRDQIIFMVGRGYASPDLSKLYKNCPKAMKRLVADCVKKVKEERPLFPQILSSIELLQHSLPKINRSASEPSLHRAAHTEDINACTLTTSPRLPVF

The term EC50 denotes the concentration that produces a half-maximal response. For the compound `O=C(NC12CC3CC(CC(C3)C1)C2)N[C@H]1CC[C@H](Oc2ccc(C(=O)O)cc2)CC1` [Compound 1471, reference compound], the half-maximal effective concentration (EC50) in series [1] (72 h) is over 25 µM.

`O=C(Nc1ccc(OC(F)(F)F)cc1)N[C@H]1CC[C@H](Oc2ccc(C(=O)O)cc2)CC1` [Compound 1728, trans-4-{4-[3-(4-Trifluoromethoxy-phenyl)-ureido]-cyclohexyloxy}-benzoic acid]: the EC50 in the series on Huh-7 hepatoma cell line (Huh-7, 72 h) stood at 20 µM; in series [1] (72 h) it was 15 µM; in the series on HepG2 hepatoma cell line (HepG2, 72 h) it was 15 µM. In addition, the “Effect on Hep G2 cell viability (dose dependence)” value with HepG2 hepatoma cell line (FIG. 2) and with HepG2 hepatoma cell line (FIG. 4) was “limited effect” each time. In the series on HepG2 hepatoma cell line (administered in combination with sunitinib, Hep G2), the “Effect on sunitinib's ability to kill cancer cells” value is recorded as “potentiates”.

Usually IC50 stands for the concentration that inhibits the measured activity by half. As to `O=C(Nc1ccc(Cl)c(C(F)(F)F)c1)N[C@H]1CC[C@H](Oc2ccc(C(=O)O)cc2)CC1` [Compound 2221, trans-4-{4-[3-(4-Chloro-3-trifluoromethyl-phenyl)-ureido]-cyclohexyloxy}-benzoic acid], the values for the IC50 on b-Raf (V600E) and against human sEH were over 10 µM and 0.0005 µM, respectively.

Consider `CNC(=O)c1ccc(O[C@H]2CC[C@H](NC(=O)NC34CC5CC(CC(C5)C3)C4)CC2)cc1` [Compound 2225, trans-4-[4-(3-adamantan-1-yl-ureido]-cyclohexyloxy)-N-methyl-benzamide], for which the IC50 on human sEH (read-out: Human sEH IC50) was 0.0005 µM; on Raf-1 (setting [7]), over 10 µM. Besides, the EC50 in series [2] (setting [6]) was found to be 7.5 µM; in [3] (MTT, 72 hours incubation), 2 µM; in the series on Huh-7 hepatoma cell line (setting [8]), 7 µM; in series [4] it was 4.5 µM; in series [1] (MTT, 72 hours incubation), 4.5 µM; in the series on HepG2 hepatoma cell line (setting [9]), 6 µM.

Consider `CNC(=O)c1ccc(O[C@H]2CC[C@H](NC(=O)Nc3ccc(OC(F)(F)F)cc3)CC2)cc1` [Compound 2227, trans-N-Methyl-4-{4-[3-(4-trifluoromethoxy-phenyl)-ureido]-cyclohexyloxy}-benzamide], for which the IC50 was over 10 µM against b-Raf (V600E) and 0.34 ± 0.04 µM against Raf-1. In addition, the EC50 is over 25 µM in [2] (SK-BR-3, 72 h); 10 µM in series [3] (72 h); 5.5 µM with Huh-7 hepatoma cell line (Huh-7, 72 h); over 25 µM in series [4]; 6.5 µM in [1] (72 h); 7 µM with HepG2 hepatoma cell line (HepG2, 72 h).

One may read the AUC(0-t) as exposure summed from dosing to a finite time, without extrapolation to infinity. Higher therefore signals more exposure. A word on the Cmax: it is the highest concentration seen after dosing. What is called Tmax is the time at which the peak concentration occurs. Regarding `CNC(=O)c1cc(O[C@H]2CC[C@H](NC(=O)Nc3ccc(Cl)c(C(F)(F)F)c3)CC2)ccn1` [Compound 2278, trans-4-{4-[3-(4-chloro-3-trifluoromethyl-phenyl)-ureido]-cyclohexyloxy}-pyridine-2-carboxylic acid methylamide], the IC50 at human sEH (read-out: Human sEH IC50) turned out to be 0.0005 µM. For the same compound, the concentration for a half-maximal effect (EC50) in [2] (setting [6]) came to 8 µM; in [3] (MTT, 72 hours incubation), 7 µM; with Huh-7 hepatoma cell line (setting [8]) it was 8 µM; in series [4], 5 µM; in series [1] (MTT, 72 hours incubation), 7.5 µM; in the series on HepG2 hepatoma cell line (setting [9]) it was 7 µM. The compound further returned an AUC(0-t) in [5] of 3 µM·h. In series [5], this compound showed a Cmax of 190 nM. Also, in series [5], the Tmax came to 1.7 h. The “Effect on Hep G2 cell viability (dose dependence)” value with HepG2 hepatoma cell line (FIG. 2) and in the series on HepG2 hepatoma cell line (FIG. 4) was “more efficient than sunitinib” each time. The “Effect on Hep G2 cell viability (comparison of inhibitors)” value in the series on HepG2 hepatoma cell line (FIG. 3, at a concentration 2-fold smaller) is recorded as “more efficient than sunitinib”.

`CC(C)(C)OC(=O)c1cc(O[C@H]2CC[C@H](NC(=O)Nc3ccc(Cl)c(C(F)(F)F)c3)CC2)ccn1` [Compound 2280, trans-4-{4-[3-(4-Chloro-3-trifluoromethyl-phenyl)-ureido]-cyclohexyloxy}-pyridine-2-carboxylic acid tert-butyl ester] had an IC50 at b-Raf (V600E) of over 10 µM.

As for `CNC(=O)c1cc(Oc2ccc(NC(=O)NC34CC5CC(CC(C5)C3)C4)cc2)ccn1` [Compound 2287, 4-[4-(3-Adamantan-1-yl-ureido)-phenoxy]-pyridine-2-carboxylic acid methylamide], the IC50 against b-Raf (V600E) was over 10 µM; at human sEH (read-out: Human sEH IC50), 0.0005 µM; at Raf-1 (setting [7]), over 10 µM.

Regarding `O=C(Nc1ccc(Cl)c(C(F)(F)F)c1)N[C@H]1CC[C@H](Oc2ccc(C(F)(F)F)cn2)CC1` [Compound 2288, trans-1-(4-Chloro-3-trifluoromethyl-phenyl)-3-[4-(5-trifluoromethyl-pyridin-2-yloxy)-cyclohexyl]-urea], the IC50 on b-Raf (V600E) is over 10 µM; at human sEH (read-out: Human sEH IC50) it was 0.009 µM; on Raf-1 (setting [7]), over 10 µM.

For `CNC(=O)c1ccc(O[C@H]2CC[C@H](NC(=O)Nc3ccc(Cl)c(C(F)(F)F)c3)CC2)cn1` [Compound 2316, trans-5-{4-[3-(4-Chloro-3-trifluoromethyl-phenyl)-ureido]-cyclohexyloxy}-pyridine-2-carboxylic acid methylamide], the concentration for half-maximal inhibition (IC50) against b-Raf (V600E) worked out at 1.5 µM; on human sEH (read-out: Human sEH IC50), 0.0005 µM; at Raf-1 (setting [7]), 0.175 ± 0.02 µM.

Broadly, the inhibition is how much of the control response was suppressed. Regarding `CC(C)(C)OC(=O)c1cc(O[C@H]2CC[C@@H](NC(=O)Nc3ccc(Cl)c(C(F)(F)F)c3)CC2)ccn1` [Compound 2318, cis-4-{4-[3-(4-Chloro-3-trifluoromethyl-phenyl)-ureido]-cyclohexyloxy}-pyridine-2-carboxylic acid tert-butyl ester], the inhibition at 10 µM at b-Raf (V600E) (at 10 μM concentration) worked out at 51%; at Raf-1 (read-out: Raf-1 % inhibition, at 10 μM concentration) it was 54%.

Turning to `CNC(=O)c1cc(O[C@H]2CC[C@@H](NC(=O)Nc3ccc(Cl)c(C(F)(F)F)c3)CC2)ccn1` [Compound 2319, cis-4-{4-[3-(4-chloro-3-trifluoromethyl-phenyl)-ureido]-cyclohexyloxy}-pyridine-2-carboxylic acid methylamide], the IC50 at human sEH (read-out: Human sEH IC50) amounted to 0.0005 µM. Also, the EC50 worked out at 8 µM in [2] (setting [6]), 8.5 µM in the series with Huh-7 hepatoma cell line (setting [8]) and 7.5 µM with HepG2 hepatoma cell line (setting [9]).

Consider `CNC(=O)c1cc(O[C@H]2CC[C@H](NC(=O)Nc3ccc(OC(F)(F)F)cc3)CC2)ccn1` [Compound 2575, trans-4-{4-[3-(4-Trifluoromethoxy-phenyl)-ureido]-cyclohexyloxy}-pyridine-2-carboxylic acid methylamide], for which the IC50 at human sEH (read-out: Human sEH IC50) was 0.0005 µM; on Raf-1 (setting [7]) it was over 10 µM.

Consider `CNC(=O)c1cc(Oc2ccc(NC(=O)Nc3ccc(Cl)c(C(F)(F)F)c3)cc2)ccn1` [Sorafenib, reference compound], for which the concentration for a half-maximal effect (EC50) in series [2] (SK-BR-3, 72 h) was found to be 6.5 µM; in [3] (72 h), 5.5 µM; in the series with Huh-7 hepatoma cell line (Huh-7, 72 h), 4.2 µM; in series [4], 3 µM; in series [1] (72 h), 4 µM.

The values are drawn from patent US9029401B2 (The Regents of the University of California, priority 2011, dated 2015).
